The record followed here is publication PMC12242667, “Attenuation of 6‑OHDA-Induced Neurotoxicity by 1,2,3-Triazole-Based Sulfonamides through SIRT1 Activity” (ACS Omega, 2025).

Series [1] deals with normal embryonic lung (MRC-5) cell line. In words: Cytotoxicity on MRC-5 cell line, MTT assay. It counts as cell-based. Conditions: Homo sapiens, MRC5, MRC-5 cells, 48 h incubation. On the procedure: Normal embryonic lung MRC-5 cells and neuroblastoma SH-SY5Y cells from the American Type Culture Collection (Manassas, VA, USA) were maintained in DMEM with 10% heat-inactivated FBS and 1% penicillin-streptomycin at 37 °C in humidified air containing 5% carbon dioxide.
Cytotoxicity of 1,2,3-triazole-based sulfonamides was evaluated by using a normal embryonic lung (MRC-5) cell line. The MRC-5 cells were cultured in 96-well microtiter plates (Corning Inc., NY, USA) at 5,000–20,000 cells/well and incubated for 24 h at 37 °C in humidified air containing 5% carbon dioxide. Subsequently, various concentrations of 1,2,3-triazole derivatives, doxorubicin (used as a positive control), and DMSO (used as a negative control) were added and incubated for an additional 48 h. MTT reagent (0.5 mg/mL in medium) was added for cell staining and incubated for 4 h. Then, the remaining formazan was dissolved in DMSO by sonication. The absorbance of the test wavelength of 550 nm and the reference wavelength of 650 nm was analyzed with a microplate reader (Molecular Devices, CA, USA). IC50 of each compound was determined as the concentration of the compound that inhibits cell growth by 50%.

In another series the target is T1, SIRT1 (Homo sapiens, UniProt Q96EB6).
T1 construct: endogenous in cells; host or cells: SH-SY5Y
T1 sequence (Q96EB6 1-747): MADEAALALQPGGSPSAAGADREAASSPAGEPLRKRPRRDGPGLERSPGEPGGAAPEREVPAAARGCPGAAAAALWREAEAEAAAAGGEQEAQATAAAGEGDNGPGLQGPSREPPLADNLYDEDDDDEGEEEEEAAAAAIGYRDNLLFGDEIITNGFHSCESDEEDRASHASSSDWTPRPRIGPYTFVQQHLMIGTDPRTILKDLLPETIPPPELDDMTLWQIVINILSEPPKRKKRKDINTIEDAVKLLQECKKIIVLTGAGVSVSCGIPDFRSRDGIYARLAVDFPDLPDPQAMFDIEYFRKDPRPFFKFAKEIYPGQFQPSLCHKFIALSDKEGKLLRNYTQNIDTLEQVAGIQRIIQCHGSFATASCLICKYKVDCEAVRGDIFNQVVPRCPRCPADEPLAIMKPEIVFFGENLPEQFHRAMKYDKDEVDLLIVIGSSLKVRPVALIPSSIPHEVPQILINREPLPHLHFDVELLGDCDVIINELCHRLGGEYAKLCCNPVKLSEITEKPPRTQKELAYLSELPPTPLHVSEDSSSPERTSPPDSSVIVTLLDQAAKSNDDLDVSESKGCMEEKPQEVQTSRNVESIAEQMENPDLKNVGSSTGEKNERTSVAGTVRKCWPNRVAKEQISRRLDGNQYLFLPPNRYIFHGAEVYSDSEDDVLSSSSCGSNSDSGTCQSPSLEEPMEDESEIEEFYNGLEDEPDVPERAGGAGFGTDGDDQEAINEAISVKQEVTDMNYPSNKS
In words: SIRT1 deacetylase activity in SH-SY5Y cell lysate. It counts as cell-based. Conditions: 5 μM pretreatment 3 h, then 50 μM 6-OHDA 24 h, relative to control. How it is done: SH-SY5Y neuronal cells at 1.0 × 10^5 cells/mL were seeded into 6-well plates for 24 h. Then, the cells were pretreated with 5 μM 1,2,3-triazole-based sulfonamide derivatives for 3 h before neurotoxicity was induced with 50 μM 6-OHDA for another 24 h. The cell culture medium was rinsed off with cold 1X PBS. The cells were incubated at 4 °C with 1X RIPA buffer containing a protease inhibitor for 20 min before being harvested using a cell scraper, followed by centrifugation at 12,000 rpm for 20 min. Protein concentrations were measured using the Bradford protein assay, and SIRT1 activity in the cells was determined following the manufacturer’s instructions. The increase in SIRT1 enzyme activity was measured by fluorescence intensity at an excitation wavelength of 340 nm and an emission wavelength of 445 nm. SIRT1 enzyme activity was statistically analyzed as a percentage relative to the control group.

Series [2] deals with 6-OHDA-induced SH-SY5Y neuronal cells. Briefly: Cellular leakage of LDH enzyme. Format: cell-based, Human. Conditions: 5 μM pretreatment 3 h, then 50 μM 6-OHDA 24 h, percentage of control. On the procedure:
Leakage of LDH, an enzyme commonly used as an assessment factor to evaluate cellular damage, was measured to determine the protective ability of the compounds against 6-OHDA-induced neuronal damage. 1.0 × 10^5 cells/mL of SH-SY5Y neuronal cells were seeded into 6-well plates for 24 h. The cells were pretreated with 5 μM of 1,2,3-triazole-based sulfonamide derivatives for 3 h before being treated with 50 μM of 6-OHDA for 24 h. The cell culture medium of SH-SY5Y cells was collected, and LDH leakage was evaluated using the LDH assay kit. In the presence of LDH, lactate is converted into pyruvate, resulting in an elevated level of NADH production, which is determined via the change in absorbance at 450 nm. LDH activity was calculated according to the manufacturer’s instructions and shown as a percentage of the control group.

For series [3] the test system is unchanged. Briefly: Intracellular ROS production, H2DCFDA assay. It counts as cell-based. The following applies: Homo sapiens, 5 μM pretreatment 3 h, then 50 μM 6-OHDA 24 h, relative to control. On the procedure:
ROS production in SH-SY5Y neuronal cells was investigated using H2DCFDA. 1.0 × 10^5 cells/mL of SH-SY5Y neuronal cells were seeded into 96-well plates for 24 h, and 5 μM of selected 1,2,3-triazole-based sulfonamide derivatives were pretreated for 3 h. Then, neurotoxicity of the cells were induced with 50 μM of 6-OHDA for another 24 h. The neuronal cells with 10 μM H2DCFDA were incubated for 30 min at 37 °C in the dark. The emission and excitation wavelengths of 528 nm and 485 nm, respectively, were measured by using a microplate reader. The measured ROS production was calculated as a percentage relative to the control group.

The test system is the same in series [4]. Briefly: Neuroprotection: cell viability of 6-OHDA-induced SH-SY5Y cells, MTT assay. It counts as cell-based, Human. Conditions: then 50 μM 6-OHDA 24 h. On the procedure: Prior to investigations, 1.0 × 10^5 SH-SY5Y neuronal cells/mL were seeded into 96-well plates for 24 h. To determine the optimal concentration of 6-OHDA for inducing neurotoxicity, cells were seeded into 96-well plates for 24 h and treated with various concentrations of 6-OHDA ranging from 25 to 125 μM for another 24 h. For the evaluation of the cytotoxicity of 1,2,3-triazole-based sulfonamide derivatives on SH-SY5Y neuronal cells, the cells were treated with various concentrations (0.1–10 μM) of 1,2,3-triazole-based sulfonamide derivatives for 24 h.^29 To assess the neuroprotective activity of 1,2,3-triazole-based sulfonamide derivatives, the cells were pretreated with various concentrations (0.1–10 μM) of 1,2,3-triazole-based sulfonamide derivatives for 3 h before being treated with 50 μM of 6-OHDA for another 24 h. Cell viability was assessed by incubating with 5 mg/mL of MTT reagent for 3 h at 37 °C, followed by absorbance measurement at 570 nm using a microplate reader (Thermo Fisher Scientific Inc., MA, USA). The viability of SH-SY5Y cells at each concentration was analyzed as a percentage relative to the control group.

A value given as a limit tells only on which side of the number the result lay.

In series [1], `COc1ccc(CCNS(=O)(=O)c2ccc(-n3cc(-c4ccccc4)nn3)cc2)cc1OC` [8a] showed an IC50 of 78.8 ± 8.11 µM.

Turning to `O=Cc1ccc(OCc2cn(-c3ccc(S(=O)(=O)NCCc4ccccc4)cc3)nn2)cc1` [3a], the figures for the activity at 5 µM (on SIRT1; in series [3]) were 92.5 ± 1.98% and 103 ± 4.94%, respectively. In series [1], this compound had an IC50 above 108 µM. Moreover, the “LDH leakage (LDH activity)” value in series [2] came to 112.6 ± 2.585%. Further, the “cell viability of 6-OHDA-induced cells” value turned out to be 85.36 ± 4.615% in series [4] (pretreatment 1 μM 3 h) and 87.69 ± 4.276% in series [4] (pretreatment 5 μM 3 h).

On to `Cc1ccc(OCc2cn(-c3ccc(S(=O)(=O)N4CCc5ccccc5C4)cc3)nn2)cc1` [2b], for which 70.4 ± 6.8 µM corresponded to half-maximal inhibition in series [1] (IC50).

As to `O=Cc1ccc(OCc2cn(-c3ccc(S(=O)(=O)N4CCc5ccccc5C4)cc3)nn2)cc1` [3b], the activity at 5 µM at SIRT1 was determined as 94.3 ± 3.28%; in series [3], 103 ± 5.8%. In series [1], the IC50 is above 105 µM. The “LDH leakage (LDH activity)” value in series [2] worked out at 115.6 ± 2.926%. The “cell viability of 6-OHDA-induced cells” value turned out to be 89.37 ± 4.597% in series [4] (pretreatment 1 μM 3 h) and 90.41 ± 7.193% in series [4] (pretreatment 5 μM 3 h).

In turn, `O=c1ccc2ccc(OCc3cn(-c4ccc(S(=O)(=O)NCCc5ccccc5)cc4)nn3)cc2o1` [6a] registered an IC50 in series [1] of 55.3 ± 1.45 µM.

Take `Oc1ccc(/C=C/c2cc(O)cc(O)c2)cc1` [Resveratrol, reference compound]: the activity at 5 µM on SIRT1 came to 92.6 ± 1.06%; in series [3] it was 101 ± 5.5%. Moreover, the “LDH leakage (LDH activity)” value in series [2] was found to be 115.6 ± 2.723%. The “cell viability of 6-OHDA-induced cells” value was found to be 90.01 ± 4.738% in series [4] (pretreatment 0.1 μM (first of four concentrations 0.1–10 μM) 3 h), 88.04 ± 6.146% in series [4] (pretreatment 1 μM 3 h), 92.06 ± 9.069% in series [4] (pretreatment 5 μM 3 h) and 90.47 ± 9.763% in series [4] (pretreatment 10 μM (last of four concentrations 0.1–10 μM) 3 h).

`COc1cccc2c1C(=O)c1c(O)c3c(c(O)c1C2=O)C[C@@](O)(C(=O)CO)C[C@@H]3O[C@H]1C[C@H](N)[C@H](O)[C@H](C)O1` [Doxorubicin, reference compound] registered an IC50 in series [1] of 2.57 ± 0.36 µM.

For `Cc1ccccc1OCc1cn(-c2ccc(S(=O)(=O)N3CCc4ccccc4C3)cc2)nn1` [4b], the figures for the activity at 5 µM (at SIRT1; in series [3]) were 91.06 ± 0.589% and 102 ± 5.64%, respectively. The compound also showed an IC50 in series [1] of 19 ± 0.89 µM. The “LDH leakage (LDH activity)” value in series [2] is recorded as 113.5 ± 2.954%. Also, the “cell viability of 6-OHDA-induced cells” value came out at 88.69 ± 4.465% in series [4] (pretreatment 1 μM 3 h) and 84.03 ± 1.563% in series [4] (pretreatment 5 μM 3 h).

`O=c1cc(OCc2cn(-c3ccc(S(=O)(=O)NCCc4ccccc4)cc3)nn2)c2ccccc2o1` [7a] came in with an IC50 in series [1] above 99.5 µM.

With `CC(=O)c1ccccc1OCc1cn(-c2ccc(S(=O)(=O)N3CCc4ccccc4C3)cc2)nn1` [5b], in series [1], the IC50 stood at 15.4 ± 1.1 µM.

Turning to `Cc1ccccc1OCc1cn(-c2ccc(S(=O)(=O)NCCc3ccccc3)cc2)nn1` [5a], the activity at 5 µM turned out to be 93.7 ± 2.54% on SIRT1 and 104 ± 4.42% in series [3]. Moreover, in series [1], the concentration for half-maximal inhibition (IC50) was above 111 µM. In addition, the “LDH leakage (LDH activity)” value in series [2] is reported as 116.0 ± 2.698%. Also, the figures for the “cell viability of 6-OHDA-induced cells” value in series [4] (pretreatment 1 μM 3 h) and in series [4] (pretreatment 5 μM 3 h) were 91.89 ± 9.100% and 90.88 ± 6.158%, respectively.

Take `Cc1ccc(OCc2cn(-c3ccc(S(=O)(=O)NCCc4ccccc4)cc3)nn2)cc1` [2a]: the results for the activity at 5 µM (at SIRT1; in series [3]) were 91.9 ± 1.45% and 102 ± 4.74%, respectively. Moreover, the IC50 in series [1] came to 89.4 ± 2.95 µM. The “LDH leakage (LDH activity)” value in series [2] is 109.8 ± 3.826%. Besides, the “cell viability of 6-OHDA-induced cells” value in series [4] (pretreatment 1 μM 3 h) came out at 90.11 ± 5.567%; in series [4] (pretreatment 5 μM 3 h), 89.25 ± 3.236%.

Compound `O=c1cc(OCc2cn(-c3ccc(S(=O)(=O)N4CCc5ccccc5C4)cc3)nn2)c2ccccc2o1` [6b] yielded an IC50 in series [1] above 97.2 µM.

In the case of `O=c1ccc2ccc(OCc3cn(-c4cccc(S(=O)(=O)N5CCc6ccccc6C5)c4)nn3)cc2o1` [1c], the midpoint of inhibition in series [1], the IC50, lay at 14.4 ± 0.34 µM.

Take `O=S(=O)(c1ccc(-n2cc(COc3ccccc3)nn2)cc1)N1CCc2ccccc2C1` [1b]: in series [1], the midpoint of inhibition, the IC50, lay at 59 ± 3.69 µM.

`O=S(=O)(NCCc1ccccc1)c1ccc(-n2cc(-c3ccccc3)nn2)cc1` [1a]: in series [1], the IC50 was 103 ± 1.31 µM. Against the preceding compound, the IC50 is about 1.7-fold higher.

Take `O=[N+]([O-])c1ccc(OCc2cn(-c3ccc(S(=O)(=O)NCCc4ccccc4)cc3)nn2)cc1` [4a]: the results for the activity at 5 µM (at SIRT1; in series [3]) were 92.9 ± 3.19% and 103 ± 5.15%, respectively. The same compound had an IC50 in series [1] of 80.4 ± 3.79 µM. Further, the “LDH leakage (LDH activity)” value in series [2] worked out at 113.3 ± 6.585%. The “cell viability of 6-OHDA-induced cells” value in series [4] (pretreatment 1 μM 3 h) is listed as 88.68 ± 3.959%; in series [4] (pretreatment 5 μM 3 h), 85.48 ± 4.470%.

In turn, `COc1cc2c(cc1OC)CN(S(=O)(=O)c1cccc(-n3cc(COc4cc(=O)oc5ccccc45)nn3)c1)CC2` [4c] yielded an IC50 in series [1] above 87 µM.

The compound `COc1cc2c(cc1OC)CN(S(=O)(=O)c1cccc(-n3cc(COc4ccc5ccc(=O)oc5c4)nn3)c1)CC2` [3c] gave an IC50 in series [1] above 87 µM.

`O=c1cc(OCc2cn(-c3cccc(S(=O)(=O)N4CCc5ccccc5C4)c3)nn2)c2ccccc2o1` [2c]: the IC50 in series [1] is above 97.2 µM.
